The values that follow come from patent US7626076B2, “Transgenic mouse whose genome comprises a homozygous disruption of its α1G gene, a method of preparing the same and use thereof” (Orient Bio., Inc., priority 2002, dated 2009).

Common to all, as to type: in vivo, mouse
Experiment [1] concerns wild-type and α1G −/− mice. In words: Thalamic field activity (depth electrodes) and epidural EEG after (RS)-baclofen in freely moving animals. The conditions noted are these: 30 mg/kg i.p. Here is the method:
To confirm the result of Example 6, the present inventors examined the field activity of thalamic nuclei using depth electrodes in freely moving animals. […] To examine the thalamic SWDs, the present inventors injected (RS)-baclofen i.p. at 30 mg/kg instead of the dose, i.e., 20 mg/kg, used previously (FIG. 4B). […] The administration of baclofen synchronized all thalamic activities into 2-3 Hz SWDs in wild-type nice (FIG. 5B, left). In the α1G −/− thalamus, however, baclofen reduced the amplitudes of peaks in a wide range of frequency, as if it caused general desynchronization (FIG. 5B, right).

Experiment [2] has as its system wild-type and α1G −/− mice. In words: SWD generation in epidural EEG after systemic injection of absence seizure-inducing agents. The following applies: for SWD generation in epidural EEG: α1G −/− mice. The source says: To examine the role of α1G in the generation of SWDs in vivo, the present inventors systematically [“systemic” and “systematic” are different] injected into α1G −/− mice and wild-type mice either γ-butyrolactone, a prodrug of γ-hydroxybutyric acid, or (RS)-baclofen. Absence seizures induced by these drugs are characterized by bilaterally synchronous SWDs and have been associated with behavioral arrest, facial myoclonus, and vibrissal twitching.

For experiment [3], the system named is wild-type and α1G −/− mice. In words: Convulsive seizures induced by 4-AP (EEG and behavioral seizure score). The source says:
The present inventors tested whether the seizure resistance of α1G −/− mice was specific to absence seizures. […] The EEG pattern of these ictal discharges was quite different from that observed in the spike-and-wave seizures induced by baclofen or bicuculline.
The below scores grade the seizures according to behavioral seizures as monitored by video.
1: mild tremors of the head
2: whole body tremors with loss of postural control
3: erratic running, erratic jumping, or tonic-clonic movement of the limbs
4: tonic extension of the whole body or death

Experiment [4] deals with wild-type and α1G −/− mice. In words: EEG recording of cortex and thalamus after injection of BMB. The conditions noted are these: 10 mg/kg into the peritoneal cavity. The protocol: Systematic administration or focal injection of bicuculline into the cortex has been known to evoke SWDs mainly originating from the territory of the cortex (Steriade and Contreras, Journal of Neurophysiology, 1998, 80, 1439-55). To determine the role of α1G in the cortex-dependent mechanism of SWDs, the present inventors examined the EEG pattern after injection of BMB into the peritoneal cavity of mice at 10 mg/kg.
However, because of the complexity of the bicuculline-induced seizures, the present inventors could not conclude whether there is any quantitative difference in the amplitude of the SWDs or in the time lag of SWD occurrences for the two types of mice (i.e., wild-type and α1G −/−). […] Thus, it seems that the BMB-induced SWDs observed here are also associated with other types of generalized seizures.

Structures are written as SMILES.

Take `NCC(CC(=O)O)c1ccc(Cl)cc1` (racemic) [(RS)-baclofen]: the “frequency of SWDs in epidural EEG” value is recorded as 2-3 Hz in experiment [1] (duration of SWDs significantly increased versus 20 mg/kg) and 3-4 Hz in experiment [2] (wild-type mice, 20 mg/kg). For the same compound, the “frequency of SWDs in thalamus (field recording)” value in experiment [1] (wild-type thalamus) was 2-3 Hz. Further, in experiment [1] (α1G −/− thalamus), the “SWD generation in thalamus (field recording)” value is reported as “no such synchronized activities were observed”. In experiment [2] (20 mg/kg), the “SWD generation in epidural EEG” value is on record as “marked resistance to the generation of SWDs”.
As to `Nc1ccncc1` [4-AP, 4-aminopyridine], the “mice that developed seizures” value in experiment [3] (2 mg/kg into the peritoneal cavity, C57BL/6J and 129/sv) came out at 25%. In addition, the “mice that developed tonic-clonic seizures” value in experiment [3] (10 mg/kg into the peritoneal cavity, C57BL/6J and 129/sv) is reported as “All of the mice”. In addition, in experiment [3] (10 mg/kg, both wild-type and α1G −/− mice), the “time to vigorous ictal discharges after injection” value was in the range of 30 to 40 min. Besides, the “severity of induced seizures graded by behavioral symptoms, wild-type versus α1G −/− mice” value in experiment [3] (seizure score 0-4, 2 mg/kg and 10 mg/kg) is listed as “no quantitative difference”.
For `C[N+]1(C)CCc2cc3c(cc2[C@H]1[C@@H]1OC(=O)c2c1ccc1c2OCO1)OCO3.[Br-]` [BMB, bicucullinemethobromide], in experiment [4], the “time to initiation of seizure spikes in the cortex” value was “within five minutes”. Further, the “SWD generation in EEG” value in experiment [4] (α1G −/− mice) was “exhibited SWD-like activities”.
As for `O=C1CCCO1` [γ-butyrolactone], the “frequency of paroxysmal SWDs in epidural EEG” value in experiment [2] (wild-type mice, 70 mg/kg) is 3-5 Hz. Also, the “SWD generation in epidural EEG” value in experiment [2] (70 mg/kg) is “did not display typical SWD patterns”.
